Results: patent US12496301B2, “Use of androgen receptor degrader for the treatment of spinal and bulbar muscular atrophy” (Arvinas Operations, Inc., priority 2023, dated 2025)
Entries after “also recorded” stand apart in the source; their conditions may differ.

How the values were obtained:
[1] = Efficacy in hAR100Q murine model of SBMA (body weight, grip strength, treadmill, survival); type: in vivo, mouse
From the text: (§1) Male mice harboring approximately 73±14 copies of full-length human AR harboring 100 CAG repeats in exon 1 (hAR100Q) (“hAR100Q mice”) were used in this study. hAR100Q mice were obtained from mice (C57BL/6J background) expressing heterozygous human […] AR100Q (AR100Q+/−) under the control of the cytomegalovirus immediate-early enhancer and the chicken beta-actin (pCAGGS) promoter. These transgenic lines were maintained, and the colony expanded by breeding with C57BL/6J (Jackson Laboratory) wild-type (WT) mice.
(§2) A total of […] hAR100Q and 20 littermate controls were used for this study. Each genotype was divided into two groups of 10 (control vs Compound A) giving a total of four separate groups (WT control, WT Compound A, hAR100Q control, and hAR100Q Compound A). All mice were fed control chow beginning at 4 weeks of age. At 5 weeks of age, treated groups were switched to Compound A-formulated chow and the remaining mice were fed control chow. Body weights were recorded weekly starting at 5 weeks of age.
(§3) Compound A was formulated at 100 parts per million (ppm) Compound A in rodent chow (Purina #5015). This dose level (100 ppm) approximates a 15 mg/kg dose for a mouse that weighs 20 g and consumes 3 g of chow per day. For control chow, rodent chow (Purina #5015) was re-pelleted in an identical manner to the Compound A-formulated chow.
(§4) A grip strength apparatus was utilized to measure the force exerted by the forepaws only, or all four paws of mice once per week beginning at 7 weeks of age. The apparatus was placed on a sturdy flat lab bench and the apparatus's grid wire mesh was used for all four paws. Individual mice grasped a wire mesh (all four paws) and were gently pulled by the base of their tail to measure their maximum force exerted to maintain their grip. The grip strength assay was conducted 6 times per mouse, for all four paws.
(§5) A Touchscreen Treadmill was utilized to analyze length of time running at increasing speeds until exhaustion. Individual mice ran on a flat treadmill with a graded acceleration protocol consisting of 10 meters (m)/min. for the first 40 min., with the speed increasing thereafter by increments of 1 m/min. every 10 min. for 30 min., and then finally increasing speed by increments of 1 m/min. every 5 min. until the mice were exhausted. The exhaustion was determined by 5 consecutive seconds or 20 overall seconds of failure to exercise (by staying on shock rods at the start of the treadmill). Treadmill training was performed for 2 days before the first week of testing. The training protocol on day 1 consisted of 5 min. at 8 m/min, while day 2 consisted of 5 min. at 8 m/min. followed by 5 min. at 10 m/min.
(§6) In the murine model of SBMA used here (hereafter referred to as hAR100Q mice), which also expresses endogenous mouse AR, approximately 73±14 copies of full-length human AR with 100 CAG repeats (hAR100Q) are driven by the pCAGGS promoter (Chivet, M. et al. 2020, Cells 9, 325). Heterologous expression of hAR100Q results in muscle atrophy, motor deficits, and premature death (Chivet, M. et al. 2020, Cells 9, 325). Symptom onset starts as early as 8 weeks of age and get progressively worse until week 13-14, at which time mice are euthanized because of extreme immobility. In this study, male hAR100Q mice and littermate controls (10 mice in each group) were fed vehicle chow or Compound A-formulated chow at an approximate dose of 15 mg/kg. In-diet dosing was used in lieu of PO dosing due to the fragile nature of this disease model. Compound A-formulated chow was introduced at 5 weeks of age. In addition to weekly weight measurements, mice were evaluated using behavioral assays, including weekly grip strength measurements and forced treadmill tests at 11 weeks of age.

hAR100Q mice = assay: as above; type: in vivo, mouse
From the text: as §1, §2, §3, §4, §5, §6

[2] = Free fraction in mouse plasma; type: in vitro ADME
polyQ-AR = assay: Global proteomics in SBMA hiPSC-myotubes: polyQ-AR and specificity; type: cell-based, human
From the text: (§7) (FIG. 12A). […] (FIG. 12C).

PDE6D = target: T1, PDE6D (Homo sapiens, UniProt O43924); assay: Global proteomics / Western blot in SBMA hiPSC-myotubes: neosubstrate PDE6D; type: cell-based; conditions: hiPSC-myotubes, data not shown
T1 construct: endogenous in cells; host or cells: SBMA hiPSC-derived myotubes
From the text: as §7

T1 sequence (O43924 whole entry): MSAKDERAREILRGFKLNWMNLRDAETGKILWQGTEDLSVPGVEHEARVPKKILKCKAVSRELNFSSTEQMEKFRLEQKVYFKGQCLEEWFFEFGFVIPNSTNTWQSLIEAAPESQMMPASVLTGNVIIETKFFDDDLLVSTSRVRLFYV

## CC(C)N(CC1CCN(c2ncc(C(=O)N[C@H]3C(C)(C)[C@H](Oc4ccc(C#N)c(Cl)c4)C3(C)C)cn2)CC1)[C@H]1C[C@H](Oc2ccc3c(c2)C(=O)N(C2CCC(=O)NC2=O)C3=O)C1 (some centres unmarked) [Compound A, N-((1r,3r)-3-(3-chloro-4-cyanophenoxy)-2,2,4,4-tetramethylcyclobutyl)-2-(4-((((1r,3r)-3-((2-(2,6-dioxopiperidin-3-yl)-1,3-dioxoisoindolin-5-yl)oxy)cyclobutyl)(isopropyl)amino)methyl)piperidin-1-yl)pyrimidine-5-carboxamide]
[1]; WT littermates, chow approx. 15 mg/kg, vs vehicle
  all paw grip strength in WT littermates: similar
[1]; WT littermates, week 11, vehicle versus compound chow
  muscle endurance, forced treadmill distance, WT littermates: No differences were observed
[1]; male WT littermates, formulated chow approx. 15 mg/kg
  body weight over time in WT littermates: no impact
hAR100Q mice; hAR100Q mice, formulated chow, birth to euthanasia
  median lifespan: 151 days
hAR100Q mice; hAR100Q mice, week 11, chow approx. 15 mg/kg
  muscle endurance, forced treadmill distance, hAR100Q mice: performed as well as WT littermates
hAR100Q mice; hAR100Q mice, weekly from 7 weeks, chow approx. 15 mg/kg
  all paw grip strength in hAR100Q mice: delayed the decline and magnitude of grip strength decline
hAR100Q mice; male hAR100Q mice, formulated chow approx. 15 mg/kg from 5 weeks of age, vs vehicle
  body weight over time in hAR100Q mice: rescued weight loss
[2]
  fraction unbound: 0.0044
polyQ-AR; 12 nM, SBMA hiPSC-myotubes
  polyQ-AR degradation compared to control, global proteomics: induces degradation of polyQ-AR; also recorded: degrades polyQ-AR
polyQ-AR; out of ~7,600 proteins detected in myotubes
  neosubstrates (off-target substrates) identified: single neosubtrate; also recorded: only one neosubstrate
PDE6D
  reduction of PDE6D by Western blot: ~50%
